Like-named read-outs stand apart in the source and are kept apart here.
Legend:
Lat-1 = Lat-1 (Rattus norvegicus, UniProt Q63016)
[1] = Octanol/water partition and distribution coefficients; settings: for Log Doct 7.4: octanol distribution coefficient, pH 7.4; for Log Poct: octanol partition coefficient
Choline transporter = settings: facilitated nutrients
[2] = ref Hansch et al. [123], Avdeef [46] or other sources, cited from earlier work; for Log Poct: octanol partition coefficient
[3] = rat in vivo measurements; cited from earlier work
[4] = Neutral fraction at pH 7.4 calculated from pKa; assay type: physicochemical; settings: neutral fraction at perfusion fluid pH 7.40, calculated from pKa
[5] = In situ rat brain perfusion (brain uptake Kin, extraction E, BBB PS)
[6] = rat in vivo measurements; cited from earlier work; remark: listed apart in the source
[7] = rat
[8] = for Brain Kin: calculated at brain blood flow […] and rat serum fu; for Extraction (unbound) / Brain vascular extraction (total): calculated at brain blood flow […]; for Extraction (unbound): free drug; for Brain vascular extraction (total): with rat serum fu
[9] = rat, in vivo, pH 7.4
in vivo = settings: rat, pH 7.4
[10] = LAT1 substrates, tracer concentration
[11] = LAT1 substrates, tracer concentration, perfusion 15-30 s

Sequence of Lat-1 (Q63016 whole entry): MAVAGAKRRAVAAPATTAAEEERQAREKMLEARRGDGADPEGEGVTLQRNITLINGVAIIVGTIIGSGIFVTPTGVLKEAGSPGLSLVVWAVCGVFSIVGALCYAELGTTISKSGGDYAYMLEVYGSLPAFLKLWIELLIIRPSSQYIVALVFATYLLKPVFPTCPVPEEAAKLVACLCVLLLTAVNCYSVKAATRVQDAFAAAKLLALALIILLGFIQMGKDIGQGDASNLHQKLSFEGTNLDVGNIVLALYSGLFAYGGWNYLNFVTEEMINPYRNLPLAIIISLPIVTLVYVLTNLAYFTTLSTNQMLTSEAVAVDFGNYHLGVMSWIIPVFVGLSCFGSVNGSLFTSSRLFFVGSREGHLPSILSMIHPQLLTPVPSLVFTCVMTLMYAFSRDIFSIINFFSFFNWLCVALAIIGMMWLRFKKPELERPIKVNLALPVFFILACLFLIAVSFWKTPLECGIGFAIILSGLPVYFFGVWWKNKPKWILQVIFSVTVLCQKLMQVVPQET
Sequence of Lat-1 (Q794F9 whole entry partner): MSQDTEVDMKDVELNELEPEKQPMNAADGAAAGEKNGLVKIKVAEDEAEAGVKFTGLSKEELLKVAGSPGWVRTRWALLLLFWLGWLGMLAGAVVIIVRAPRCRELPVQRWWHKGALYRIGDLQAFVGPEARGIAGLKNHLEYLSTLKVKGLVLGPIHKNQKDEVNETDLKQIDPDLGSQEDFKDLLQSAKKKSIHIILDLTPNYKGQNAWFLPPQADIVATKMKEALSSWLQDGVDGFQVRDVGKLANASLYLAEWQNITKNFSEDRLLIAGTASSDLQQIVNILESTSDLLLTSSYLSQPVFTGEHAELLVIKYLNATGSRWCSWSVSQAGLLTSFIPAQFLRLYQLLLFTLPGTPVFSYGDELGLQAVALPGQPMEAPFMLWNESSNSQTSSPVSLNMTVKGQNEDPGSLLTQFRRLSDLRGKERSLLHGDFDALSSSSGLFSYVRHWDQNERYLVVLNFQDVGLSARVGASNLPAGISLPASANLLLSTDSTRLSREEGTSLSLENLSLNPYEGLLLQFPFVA

SMILES | Log Doct 7.4 [1] | Log Poct [1] | Log Poct [2] | Log Doct pH=7.4 [2] | Brain Vu,br [3] | fn (%) [4] | fu,.p [6] | Brain Kin [8] | Extraction (unbound) [8] | Brain vascular extraction (total) [8] | Log Pc [9] | Pc [9] | PcS [9] | Log Po [9] | Po [9] | half-life ([7]; brain) | Log PoS [9] | PoS [9] | other results
N[C@H](C(=O)O)[C@@H]1CC(Cl)=NO1 [Acivicin] | −2.63 | −0.31 | – | – | – | – | – | – | – | – | – | – | – | – | – | – | – | – | LogPS (Lat-1; [10]): −3.32; PS (Lat-1; [11]): 0.000479 mL/s/g
Nc1ncnc2nc[nH]c12 [Adenine] | −2.12 | – | – | – | – | – | – | – | – | – | – | – | – | – | – | – | – | – | –
Nc1ncnc2c1ncn2[C@@H]1O[C@H](CO)[C@@H](O)[C@H]1O [Adenosine] | −1.02 | – | – | – | – | – | – | – | – | – | – | – | – | – | – | – | – | – | –
C[N+](C)(C)CCO [Choline] | −3.70 | – | – | – | – | – | – | – | – | – | – | – | – | – | – | – | – | – | Log PS (Choline transporter): −2.89; PS (Choline transporter; S 20 s): 0.0013 mL/s/g
O=C(CO)[C@@H](O)[C@H](O)[C@H](O)CO [Fructose] | – | – | −3.20 | −3.20 | 0.08 mL/g | 100% | 1.00 | 5.74e-06 mL/s/g | 2.39E-04% | 2.39E-04% | – | – | – | – | – | – | – | – | Log Pc ([5]; Pc in cm/s): −7.24; Log Po ([5]; Po in cm/s): −7.24; Log PoS ([5]; PoS in mL/s/g): −5.24; Pc ([5]; S assumed 100 cm^2/g): 5.74e-08 cm/s; Po ([5]; S assumed 100 cm^2/g): 5.74e-08 cm/s; PoS ([5]; brain vascular intrinsic PoS): 5.74e-06 mL/s/g; PcS ([5]; cerebral cortex, flow 0.1–[…], S = physiological saline, AB = artificial blood): 5.74e-06 mL/s/g; PoS ([5]; intrinsic PS of neutral solute, PoS = PcS/fn, flow 0.1–[…]): 5.74e-06 mL/s/g; half-life [7]: 168 min
NCC1(CC(=O)O)CCCCC1 [Gabapentin] | −1.4 | 1.19 | – | – | – | – | – | – | – | – | – | – | – | – | – | – | – | – | LogPS (Lat-1; rat, in vivo, pH 7.4): −2.33; PS (Lat-1; rat, in vivo, pH 7.4): 0.00473 mL/s/g
Nc1ccn([C@@H]2O[C@H](CO)[C@@H](O)C2(F)F)c(=O)n1 [Gemcitabine] | −1.36 | −0.470 | – | – | – | – | – | – | – | – | – | – | – | – | – | – | – | – | –
COc1ccc2c(c1)c(CC(=O)O)c(C)n2C(=O)c1ccc(Cl)cc1 [Indomethacin] | – | – | 3.51 | 0.68 | 13.0 mL/g | 0.05% | 5.7E−03 | 4.37e-05 mL/s/g | 27.3% | 0.18% | −4.12 | 7.66e-05 cm/s | 0.0077 mL/s/g | −0.84 | 0.15 cm/s | 19.6 min | – | – | –
Cc1c(I)c(=O)n(-c2ccccc2)n1C [Iodoantipyrine] | – | – | 1.27 | 1.27 | 2 mL/g | 100% | 0.50 | 0.0231 mL/s/g | 99.8% | 96.1% | −2.81 | 0.00156 cm/s | 0.16 mL/s/g | −2.81 | 0.00156 cm/s | 0.5 min | −0.81 | 0.16 mL/s/g | BBB PcS [9]: 0.156 mL/s/g; Percentage printed beside the uptake curves (measure not given) [9]: 79%; Peak flow rate for 90% E ([8]; protein-free physiologic saline pH 7.4): 4.1 mL/min/g; Maximal flow—90% extraction, PcS/2.3 ([8]; protein-free saline, pH 7.4): 0.068 mL/s/g
CNC[C@H](N)C(=O)O [L-BMAA] | −3.4 | −0.85 | – | – | – | – | – | – | – | – | – | – | – | – | – | – | – | – | LogPS (Lat-1; [10]): −3.27; PS (Lat-1; [11]): 0.000542 mL/s/g
N[C@@H](Cc1ccc(O)c(O)c1)C(=O)O [L-DOPA] | −2.7 | −0.22 | – | – | – | – | – | – | – | – | – | – | – | – | – | – | – | – | LogPS (Lat-1; [10]): −1.99; PS (Lat-1; [11]): 0.0102 mL/s/g
CC(C)C[C@H](N)C(=O)O [L-Leucine] | 0.73 | – | – | – | – | – | – | – | – | – | – | – | – | – | – | – | – | – | LogPS (Lat-1; [10]): −1.45; PS (Lat-1; [11]): 0.0354 mL/s/g
N[C@@H](Cc1ccccc1)C(=O)O [L-Phenylalanine] | −1.46 | 1.110 | – | – | – | – | – | – | – | – | – | – | – | – | – | – | – | – | LogPS (Lat-1; [10]): −1.108; PS (Lat-1; [11]): 0.078 mL/s/g
OC[C@@H](O)[C@@H](O)[C@H](O)[C@H](O)CO [Mannitol] | – | – | −3.10 | −3.10 | 0.08 mL/g | 100% | 1.00 | 8.8e-06 mL/s/g | 3.67E-04% | 3.67E-04% | −7.06 | 8.8e-08 cm/s | 8.8e-06 mL/s/g | −7.06 | 8.8e-08 cm/s | 109 min | −5.06 | 8.8e-06 mL/s/g | –
N[C@@H](Cc1ccc(N(CCCl)CCCl)cc1)C(=O)O [Melphalan (para)] | −1.03 | 1.79 | – | – | – | – | – | – | – | – | – | – | – | – | – | – | – | – | –
Fc1ccc([C@@H]2CCNC[C@H]2COc2ccc3c(c2)OCO3)cc1 [Paroxetine] | – | – | 3.50 | 1.00 | 852.0 mL/g | 0.32% | 0.015 | 0.00164 mL/s/g | 99.4% | 7.4% | −2.91 | 0.00123 cm/s | 0.12 mL/s/g | −0.41 | 0.39 cm/s | 83 min | 1.59 | 39.0 mL/s/g | BBB PcS [9]: 0.12 ± 0.02 mL/s/g
CCCC(C)C1(CC)C(=O)NC(=O)NC1=O (stereo not shown) [Pentobarbital] | – | – | 2.08 | 2.01 | – | 75.1% | 0.60 | – | – | – | −3.35 | 0.00045 cm/s | 0.045 mL/s/g | −3.22 | 0.000599 cm/s | – | −1.22 | 0.0599 mL/s/g | half-life [7]: 1.44 min; half-life ([7]; plasma): 1.4 min; half-life (in vivo): 1.15 min
O=C1NC(=O)C(c2ccccc2)(c2ccccc2)N1 [Phenytoin] | – | – | 2.24 | 2.17 | 12.7 mL/g | 88.4% | 0.15 | 0.00364 mL/s/g | 66.6% | 15.2% | −3.58 | 0.000263 cm/s | 0.026 mL/s/g | −3.53 | 0.000298 cm/s | 6.02 min | −1.53 | 0.0298 mL/s/g | –
CC(C)C[C@H](CN)CC(=O)O [Pregabalin] | −1.75 | 1.12 | – | – | – | – | – | – | – | – | – | – | – | – | – | – | – | – | LogPS (Lat-1; rat, in vivo, pH 7.4): −3.01; PS (Lat-1; rat, in vivo, pH 7.4): 0.000976 mL/s/g
OC[C@H]1O[C@H](OC[C@H]2O[C@H](O[C@]3(CO)O[C@H](CO)[C@@H](O)[C@@H]3O)[C@H](O)[C@@H](O)[C@@H]2O)[C@H](O)[C@@H](O)[C@H]1O [Raffinose] | – | – | −3.89 | −3.89 | 0.03 mL/g | 100% | 1.00 | 9.5e-07 mL/s/g | 3.96E-05% | 3.96E-05% | −8.02 | 9.5e-09 cm/s | 9.5e-07 mL/s/g | −8.02 | 9.5e-09 cm/s | 405 min | −6.02 | 9.5e-07 mL/s/g | –
COC(=O)[C@H]1[C@H]2C[C@@H]3c4[nH]c5cc(OC)ccc5c4CCN3C[C@H]2C[C@@H](OC(=O)c2cc(OC)c(OC)c(OC)c2)[C@@H]1OC [Reserpine] | – | – | 1.54 | 1.46 | 5 mL/g | 83.37% | 0.10 | 0.00749 mL/s/g | 97.6% | 31.2% | −3.05 | 0.000898 cm/s | 0.09 mL/s/g | −2.97 | 0.00108 cm/s | 0.77 min | −0.97 | 0.11 mL/s/g | –
Cn1nnc2c(C(N)=O)ncn2c1=O [Temozolamide] | – | – | −1.04 | −1.04 | 1.05 mL/g | 100% | 0.80 | 0.00464 mL/s/g | 4.3% | 5.3% | −4.79 | 1.63e-05 cm/s | 0.0016 mL/s/g | −4.79 | 1.63e-05 cm/s | 7.65 min | −2.79 | 0.00163 mL/s/g | –
CCCC(CCC)C(=O)O [Valproic acid] | – | – | 2.71 | 0.21 | 1.43 mL/g | 0.16% | 0.18 | 0.0016 mL/s/g | 31.8% | 6.7% | −4.04 | 9.19e-05 cm/s | 0.0092 mL/s/g | −1.54 | 0.0292 cm/s | 1.86 min | 0.46 | 2.92 mL/s/g | –

— article PMC11650849, “Brain endothelial permeability, transport, and flow assessed over 10 orders of magnitude using the in situ brain perfusion technique” (Fluids and Barriers of the CNS, 2024)
